System: HT29 cells
Test: Inhibition of cell necrosis (CCK8 method), induced programmed necrosis of HT29 cells
Format: cell-based
Conditions: Homo sapiens, HT-29; rescue from necrosis induced by TNF-α 20 ng/mL, AT-406 1 μM, Z-VAD-FMK 20 μM; 16-20 hours; CCK-8, OD 450 nm
Procedure, shortened: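 HT29 cells in McCOY's 5A with 10% FBS were pre-treated for 30 min with compound (9 fourfold steps, 25000 to 0.38 nM final, 0.25% DMSO). Necrosis was then induced with TNF-α 20 ng/mL, AT-406 1 μM and Z-VAD-FMK 20 μM for 16-20 h. Viability was read by CCK-8 OD450, normalized between uninduced and induced wells, and IC50 was curve-fitted.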

SMILES	IC50 [nM]
CCOCCOc1ccc(C(F)(F)F)c(-c2ccnc(NC(=O)c3nnc(CC4CCCC4)[nH]3)c2)c1 [Example 285, 5-(cyclopentylmethyl)-N-(4-(5-(2-ethoxyethoxy)-2-(trifluoromethyl)phenyl)pyridin-2-yl)-4H-1,2,4-triazole-3-carboxamide]	≤ 100
CSCCCOc1ccc(C)c(-c2ccnc(NC(=O)c3nnc(Cc4ccccc4)[nH]3)c2)c1 [Example 72, 5-benzyl-N-(4-(2-methyl-5-(3-(methylthio)propoxy)phenyl)pyridin-2-yl)-4H-1,2,4-triazole-3-carboxamide]	≤ 100
COCCCOc1ccc(C)c(-c2ccnc(NC(=O)c3nnc(C(C)c4ccccc4)o3)c2)c1 (stereo not shown) [Example 143, N-(4-(5-(3-methoxypropoxy)-2-methylphenyl)pyridin-2-yl)-5-(1-phenylethyl)-1,3,4-oxadiazol-2-carboxamide]	100 to 1000
Cc1ccc(OC(C)C)cc1-c1ccnc(NC(=O)c2nnc(Cc3ccccc3)[nH]2)c1 [Example 114, 5-benzyl-N-(4-(5-isopropoxy-2-methylphenyl)pyridin-2-yl)-4H-1,2,4-triazole-3-carboxamide]	100 to 1000
Cc1ccc(OCC2CCOCC2)cc1-c1cc(NC(=O)c2nnc(Cc3ccccc3)[nH]2)ncn1 [Example 441, 5-benzyl-N-(6-(2-methyl-5-((tetrahydro-2H-pyran-4-yl)methoxy)phenyl)pyrimidin-4-yl)-4H-1,2,4-triazole-3-carboxamide]	≤ 100
O=C(Nc1cc(-c2cc(OCCCCCO)ccc2Cl)ccn1)c1nnc(CC2CCCC2)[nH]1 [Example 377, N-(4-(2-chloro-5-((5-hydroxypentyl)oxy)phenyl)pyridin-2-yl)-5-(cyclopentylmethyl)-4H-1,2,4-triazole-3-carboxamide]	≤ 100
CCOCCOc1ccc(C(F)(F)F)c(-c2ccnc(NC(=O)c3nnc(Cc4ccccc4)[nH]3)c2)c1 [Example 283, 5-benzyl-N-(4-(5-(2-ethoxyethoxy)-2-(trifluoromethyl)phenyl)pyridin-2-yl)-4H-1,2,4-triazole-3-carboxamide]	≤ 100
CC(C)(O)CCCOc1ccc(Cl)c(-c2ccnc(NC(=O)c3nnc(Cc4cc(F)c(F)c(F)c4)[nH]3)c2)c1 [Example 354, N-(4-(2-chloro-5-((4-hydroxy-4-methylpentyl)oxy)phenyl)pyridin-2-yl)-5-(3,4,5-trifluorobenzyl)-4H-1,2,4-triazole-3-carboxamide]	100 to 1000
Cc1cnc(NC(=O)c2nnc(Cc3ccccc3F)[nH]2)cc1-c1cc(OCC2CCOCC2)ccc1F [Example 331, N-(4-(2-fluoro-5-((tetrahydro-2H-pyran-4-yl)methoxy)phenyl)-5-methylpyridin-2-yl)-5-(2-fluorobenzyl)-4H-1,2,4-triazole-3-carboxamide]	1000 to 10000
O=C(Nc1cc(-c2cc(OCC3CCOCC3)ccc2Cl)ccn1)c1nnc(Cc2ccccc2)[nH]1 [Example 399, 5-benzyl-N-(4-(2-chloro-5-((tetrahydro-2H-pyran-4-yl)methoxy)phenyl)pyridin-2-yl)-4H-1,2,4-triazole-3-carboxamide]	≤ 100
Cc1ccc(OCCCC(C)(C)O)cc1-c1ccnc(NC(=O)c2nnc(CC(C)(C)C)[nH]2)c1 [Example 170, N-(4-(5-((4-hydroxy-4-methylpentyl)oxy)-2-methylphenyl)pyridin-2-yl)-5-neopentyl-4H-1,2,4-triazole-3-carboxamide]	100 to 1000
COCCOc1ccc(Cl)c(-c2ccnc(NC(=O)c3nnc(Cc4ccccc4F)[nH]3)c2)c1 [Example 380, 5-(2-fluorobenzyl)-N-(4-(2-chloro-5-(2-methoxyethoxy)phenyl)pyridin-2-yl)-4H-1,2,4-triazole-3-carboxamide]	≤ 100
Cc1ccc(OCCOC(C)(C)C)cc1-c1ccnc(NC(=O)c2nnc(CC3CCCC3)[nH]2)c1 [Example 75, N-(4-(5-(2-(tert-butoxy)ethoxy)-2-methylphenyl)pyridin-2-yl)-5-(cyclopentylmethyl)-4H-1,2,4-triazole-3-carboxamide]	≤ 100
Cc1ccc(OCCCC(C)(C)O)cc1-c1ccnc(NC(=O)c2nnc(CN3CCOCC3)[nH]2)c1 [Example 181, N-(4-(5-((4-hydroxy-4-methylpentyl)oxy)-2-methylphenyl)pyridin-2-yl)-5-(morpholinomethyl)-4H-1,2,4-triazole-3-carboxamide]	1000 to 10000
COCCCOc1cccc(-c2ccnc(NC(=O)c3nnc(Cc4ccccc4)[nH]3)c2)c1C [Example 98, 5-benzyl-N-(4-(3-(3-methoxypropoxy)-2-methylphenyl)pyridin-2-yl)-4H-1,2,4-triazole-3-carboxamide]	100 to 1000
Cc1ccc(OCCCC(C)(C)O)cc1-c1ccnc(NC(=O)c2nnc(Cc3cccnc3)[nH]2)c1 [Example 220, N-(4-(5-((4-hydroxy-4-methylpentyl)oxy)-2-methylphenyl)pyridin-2-yl)-5-(pyridin-3-ylmethyl)-4H-1,2,4-triazole-3-carboxamide]	≤ 100
O=C(Nc1cc(-c2cc(OCC3CCOCC3)ccc2Cl)ncn1)c1nnc(CC2CCCCC2)[nH]1 [Example 469, 5-(cyclohexylmethyl)-N-(6-(2-chloro-5-((tetrahydro-2H-pyran-4-yl)methoxy)phenyl)pyrimidin-4-yl)-4H-1,2,4-triazole-3-carboxamide]	≤ 100
Cc1ccc(OCC2COC2)cc1-c1ccnc(NC(=O)c2nnc(Cc3ccccc3)[nH]2)c1 [Example 66, 5-benzyl-N-(4-(2-methyl-5-(oxetan-3-ylmethoxy)phenyl)pyridin-2-yl)-4H-1,2,4-triazole-3-carboxamide]	≤ 100
O=C(Nc1cc(-c2cc(OCC3CCOCC3)ccc2C(F)(F)F)ccn1)c1nnc(CC2CCCC2)[nH]1 [Example 303, 5-(cyclopentylmethyl)-N-(4-(5-((tetrahydro-2H-pyran-4-yl)methoxy)-2-(trifluoromethyl)phenyl)pyridin-2-yl)-4H-1,2,4-triazole-3-carboxamide]	≤ 100
Cc1ccc(OCCN2CCCCC2)cc1-c1cc(NC(=O)c2nnc(Cc3ccccc3F)[nH]2)ncn1 [Example 449, 5-(2-fluorobenzyl)-N-(6-(2-methyl-5-(2-(piperidin-1-yl)ethoxy)phenyl)pyrimidin-4-yl)-4H-1,2,4-triazole-3-carboxamide]	100 to 1000
CC(C)(C)OCCOc1ccc(Cl)c(-c2ccnc(NC(=O)c3nnc(Cc4ccccc4)[nH]3)c2)c1 [Example 391, 5-benzyl-N-(4-(5-(2-(tert-butoxy)ethoxy)-2-chlorophenyl)pyridin-2-yl)-4H-1,2,4-triazole-3-carboxamide]	≤ 100
CC(C)(O)COc1ccc(C(F)(F)F)c(-c2ccnc(NC(=O)c3nnc(Cc4ccccc4F)[nH]3)c2)c1 [Example 265, 5-(2-fluorobenzyl)-N-(4-(5-(2-hydroxyl-2-methylpropoxy)-2-(trifluoromethyl)phenyl)pyridin-2-yl)-4H-1,2,4-triazole-3-carboxamide]	100 to 1000

— patent US12435060B2, “Acylamino bridged heterocyclic compound, and composition and application thereof” (BEIJING SCITECH-MQ PHARMACEUTICALS LIMITED, priority 2019, dated 2025)
